What was measured:
[1] = tested on: Colletotrichum lindemuthianum; assay: Colletotrichum lindemuthianum in vitro cell test; assay type: cell-based; conditions: 144 h, 20 ppm of active ingredient, 6 days incubation, read-out: efficacy (inhibition of fungal growth)
Description: (§1) • Solvent: DMSO • Culture medium: 14.6 g anhydrous D-glucose (VWR), 7.1 g Mycological Peptone (Oxoid), 1.4 g granulated Yeast Extract (Merck), QSP 1 liter • Inoculum: spores suspension
(§2) Fungicides were solubilized in DMSO and the solution used to prepare the required range of concentrations. The final concentration of DMSO used in the assay was ≤[…]1%.
A spore suspension of C. lindemuthianum was prepared and diluted to the desired spore density.
(§3) Fungicides were evaluated for their ability to inhibit spores germination and mycelium growth in liquid culture assay. The compounds were added in the desired concentration to the culture medium with spores. After 6 days incubation, fungi-toxicity of compounds was determined by spectrometric measurement of mycelium growth. Inhibition of fungal growth was determined by comparing the absorbance values in wells containing the fungicides with the absorbance in control wells without fungicides.

Peronospora parasitica = assay: In vivo preventive test on Peronospora parasitica (Crucifer downy mildew); conditions: Hyaloperonospora parasitica, in Brassica oleracea, 120 h, cabbage, evaluated 5 days after inoculation, read-out: efficacy; for pest or weed control at 31 ppm: 31 ppm of active ingredient; for pest or weed control at 125 ppm: 125 ppm of active ingredient; for pest or weed control at 500 ppm: 500 ppm of active ingredient
Description: (§4) The tested active ingredients were prepared by homogenization in a mixture of acetone/Dimethyl sulfoxide/Tween®, and then diluted with water to obtain the desired active material concentration. The young plants of cabbage were treated by spraying the active ingredient prepared as described above. Control plants were treated only with an aqueous solution of acetone/Dimethyl sulfoxide/Tween®.
After 72 hours, the plants were contaminated by spraying the leaves with an aqueous suspension of Peronospora parasitica spores. The contaminated cabbage plants were incubated for 5 days at 20° C. and at 100% relative humidity.
The test was evaluated 5 days after the inoculation. 0% means an efficacy which corresponds to that of the control plants while an efficacy of 100% means that no disease was observed.
Compounds CMP2 and CMP3 were tested in an in vivo preventive test on Peronospora parasitica (Crucifer downy mildew) in the same conditions as described in Example G.

[2] = LogP by HPLC on reversed phase columns (EEC directive 79/831 Annex V.A8); assay type: physicochemical; conditions: reversed phase HPLC columns
Procedure, shortened: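 Reversed-phase HPLC per EEC directive 79/831 Annex V.A8. Calibrated with straight-chain alkan-2-ones (C3–C16) of known LogP, LogP from retention times by linear interpolation between successive alkanones. Lambda-max taken from UV spectra (200–400 nm) at chromatographic peak maxima.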

[3] = tested on: Pseudomonas syringae pv. tomato; assay: Pseudomonas syringae pv. tomato in vitro cell test; assay type: cell-based; conditions: 20 ppm of active ingredient, 24 h incubation, read-out: efficacy (inhibition of bacteria growth)
Description: Culture medium: LB broth medium (Luria Broth Miller) Sigma
Inoculum: bacteria suspension
Compounds were solubilized in DMSO and the solution used to prepare the required range of concentrations. The final concentration of DMSO used in the assay was 1%.
(§5) Inoculum was prepared from a pre-culture of bacteria grown in liquid medium and diluted to the desired optical density (OD).
(§6) Compounds were evaluated for their ability to inhibit bacteria growth in liquid culture assay. The compounds were added in the desired concentrations to culture medium containing the bacteria suspension. After 24 h of incubation, the efficacy of compounds was determined by spectrometric measurement of bacteria growth. Inhibition was determined by comparing the absorbance values in wells containing the compounds with the absorbance in control wells without active ingredients.

Alternaria alternata = Alternaria alternata in vitro cell test; assay type: cell-based; conditions: 120 h, 20 ppm of active ingredient, 5 days incubation, read-out: efficacy (inhibition of fungal growth)
Description: as §1, §2
A spore suspension of A. alternata was prepared and diluted to the desired spore density.
as §3, with “inhibit spore” for “inhibit spores”, “After 5” for “After 6”

[4] = tested on: Xanthomonas campestris pv. campestris; assay: Xanthomonas campestris pv. campestris in vitro cell test; assay type: cell-based; conditions: 20 ppm of active ingredient, 24 h incubation, read-out: efficacy (inhibition of bacteria growth)
Description: • Solvent: DMSO • Culture medium: LB broth medium (Luria Broth Miller) Sigma • Inoculum: bacteria suspension
Compounds were solubilized in DMSO and the solution used to prepare the required range of concentrations. The final concentration of DMSO used in the assay was ≤1%.
as §5, §6

[5] = tested on: salicylate responsive promoter sequence of the PR1 (pathogenesis-related protein I) gene (AT2G14610); assay: Induction of defense gene expression in Arabidopsis thaliana (PR1 promoter-GFP reporter plants); assay type: in vivo; conditions: Arabidopsis thaliana, 72 h, 3rd day after spraying, mock treated leaves set as 1.00, read-out: relative fluorescence value; for fold induction at 75 ppm: 75 ppm of compound
Description: Arabidopsis thaliana reporter plants containing the coding sequence of a green fluorescent protein (GFP) linked to the salicylate responsive promoter sequence of the PR1 (pathogenesis-related protein I) gene (AT2G14610) were grown for five days and then sprayed with compounds. On the 3rd day after spraying, plant fluorescence was assessed with a MacroFluo instrument from Leica Microsystems (Wetzlar, Germany). Fluorescences were quantified with the Meta-Morph Microscopy Automation & Image Analysis Software (Molecular Devices, Sunnyvale, Calif., United States). Background fluorescence in mock treated leaves was set as 1.00.

[6] = tested on: Colletotrichum lindemuthianum; assay: In vivo preventive test on Colletotrichum lindemuthianum (Antrachnose on bean); conditions: 144 h, 500 ppm of active ingredient, inoculation 72 h after spraying, evaluated 6 days after inoculation, read-out: efficacy
Description: as §4, with “bean” for “cabbage”
(§7) After 72 hours, the plants were contaminated by spraying the leaves with an aqueous suspension of Colletotrichum lindemuthianum spores. The contaminated bean plants were incubated for 24 hours at 20° C. and at 100% relative humidity and then for 5 days at 20° C. and at 90% relative humidity. The test was evaluated 6 days after the inoculation. 0% means an efficacy which corresponds to that of the control plants while an efficacy of 100% means that no disease was observed.
Compound CMP1 was tested in an in vivo preventive test on Colletotrichum lindemuthianum (Antrachnose on bean) in the same conditions as described in Example F.

Uromyces appendiculatus = assay: In vivo preventive test on Uromyces appendiculatus (bean rust); conditions: 240 h, evaluated 10 days after inoculation, read-out: efficacy; for pest or weed control at 500 ppm: 500 ppm of active ingredient; for pest or weed control at 125 ppm: 125 ppm of active ingredient
Description: as §4, with “bean” for “cabbage”
as §7, with “Uromyces appendiculatus” for “Colletotrichum lindemuthianum”, “9” for “5”, “70-80%” for “90%”, “10” for “6”
Compounds CMP5 and CMP6 were tested in an in vivo preventive test on Uromyces appendiculatus (bean rust) in the same conditions as described in Example I.

[7] = tested on: Xanthomonas campestris pv. campestris; assay: In vivo preventive test on Xanthomonas campestris pv. campestris (black rot on cabbage); conditions: evaluated 8 or 10 days after inoculation, read-out: efficacy; for pest or weed control at 125 ppm: 125 ppm of active ingredient; for pest or weed control at 31 ppm: 31 ppm of active ingredient
Description: The tested active ingredients were prepared by homogenization in a mixture of acetone/Dimethyl sulfoxide/Tween®, and then diluted with water to obtain the desired active material concentration.
The young plants of cabbage were treated by spraying the active ingredient prepared as described above. Control plants were treated only with an aqueous solution of acetone/Dimethyl sulfoxide/Tween®.
After 72 hours, the plants were contaminated by spraying the leaves with an aqueous bacteria suspension of Xanthomonas campestris pv. campestris. The contaminated cabbage plants were incubated for 8 or 10 days at 27° C. at 95% relative humidity.
The test was evaluated 8 or 10 days after the inoculation. 0% means an efficacy which corresponds to that of the control plants while an efficacy of 100% means that no disease was observed. […]
Compounds CMP1, CMP2, CMP3 and CMP4 were tested in an in vivo preventive test on Xanthomonas campestris pv. campestris (black rot on cabbage) in the same conditions as described in Example H.

[8] = tested on: Pseudomonas syringae pv. tomato; assay: In vivo preventive test on Pseudomonas syringae pv. tomato (bacterial speck on tomato); conditions: 31 ppm of active ingredient, evaluated 5 or 6 days after inoculation, read-out: efficacy
Description: as §4, with “tomato” for “cabbage”
After 72 hours, the plants were contaminated by spraying the leaves with an aqueous bacteria suspension of Pseudomonas syringae pv. tomato. The contaminated tomato plants were incubated for 4 days in saturated atmosphere at 22° C. day/20° C. night—70% HR and then for 1 or 2 days at 22° C. day/20° C. night at 70-80% relative humidity.
The test was evaluated 5 or 6 days after the inoculation. 0% means an efficacy which corresponds to that of the control plants while an efficacy of 100% means that no disease was observed.
Compounds CMP1 and CMP4 were tested in an in vivo preventive test on Pseudomonas syringae pv. tomato (bacterial speck on tomato) in the same conditions as described in Example J.

[9] = method [a]: LC-UV, in an acidic range, with 0.1% formic acid in water and acetonitrile as eluent (linear gradient from 10% to 95% acetonitrile)
[10] = method [a]: LC-UV, acidic range, 0.1% formic acid in water and acetonitrile as eluent (linear gradient 10% to 95% acetonitrile)

Row | Compound | chromatographic logP ([2]; given in the preparation examples, method not marked) | chromatographic logP [2, 9] | chromatographic logP [2, 10] | inhibition at 20 ppm [1] [%] | pest or weed control at 31 ppm (Peronospora parasitica) [%] | pest or weed control at 125 ppm (Peronospora parasitica) [%] | pest or weed control at 500 ppm (Peronospora parasitica) [%] | inhibition at 20 ppm [3] [%] | inhibition at 20 ppm (Alternaria alternata) [%] | inhibition at 20 ppm [4] [%] | fold induction at 75 ppm [5] | fold induction at 300 ppm [5] | pest or weed control at 500 ppm [6] [%] | pest or weed control at 500 ppm (Uromyces appendiculatus) [%] | pest or weed control at 125 ppm [7] [%] | pest or weed control at 125 ppm (Uromyces appendiculatus) [%] | pest or weed control at 31 ppm [7] [%] | pest or weed control at 31 ppm [8] [%] | pest or weed control at 8 ppm (Uromyces appendiculatus; 8 ppm) [%]
1 | CCOC(=O)C(NC(=O)c1sc(Cl)c(Cl)c1Cl)c1ccccc1 (stereo not drawn) [I.064] |  | 4.89 |  | ≤ 30 | 80 to 89 | 90 to 100 | 90 to 100 | ≤ 30 | ≤ 30 | ≤ 30 |  | > 2 | 80 to 89 | 90 to 100 | 70 to 79 |  |  |  | 
2 | COC(=O)[C@H](CC(=O)OC(C)(C)C)NC(=O)c1sc(Cl)c(Cl)c1Cl [I.136] |  |  | 4.54 |  | 90 to 100 | 90 to 100 |  | ≤ 30 | ≤ 30 | ≤ 30 | > 2 | > 2 |  |  | 70 to 79 |  | 80 to 89 |  | 
3 | CCOC(=O)C[C@H](NC(=O)c1sc(Cl)c(Cl)c1Cl)C(=O)OCC [I.138] |  |  | 4.12 |  | 90 to 100 | 90 to 100 |  | ≤ 30 | ≤ 30 | ≤ 30 | > 2 | > 2 |  |  |  | 90 to 100 | 70 to 79 | 90 to 100 | 
4 | CCOC(=O)C(CSC(C)=O)NC(=O)c1sc(Cl)c(Cl)c1Cl (stereo not drawn) [I.145] |  |  | 3.41 |  | 90 to 100 | 90 to 100 |  | ≤ 30 | ≤ 30 | ≤ 30 | > 2 | > 2 |  |  | 90 to 100 | 90 to 100 | 90 to 100 | 80 to 89 | 
5 | CC(C)[C@H](NC(=O)c1sc(Cl)c(Cl)c1Cl)C(N)=O [I.147] |  |  | 2.67 | ≤ 30 |  | 90 to 100 | 90 to 100 | ≤ 30 | ≤ 30 | ≤ 30 |  |  |  | 90 to 100 |  | 90 to 100 |  |  | ≥ 90

Now from value to molecule, other results behind:

Row | chromatographic logP ([2]; given in the preparation examples, method not marked) | chromatographic logP [2, 9] | chromatographic logP [2, 10] | Compound | inhibition at 20 ppm [1] [%] | pest or weed control at 31 ppm (Peronospora parasitica) [%] | pest or weed control at 125 ppm (Peronospora parasitica) [%] | pest or weed control at 500 ppm (Peronospora parasitica) [%] | inhibition at 20 ppm [3] [%] | inhibition at 20 ppm (Alternaria alternata) [%] | inhibition at 20 ppm [4] [%] | fold induction at 75 ppm [5] | fold induction at 300 ppm [5] | pest or weed control at 500 ppm [6] [%] | pest or weed control at 500 ppm (Uromyces appendiculatus) [%] | pest or weed control at 125 ppm [7] [%] | pest or weed control at 125 ppm (Uromyces appendiculatus) [%] | pest or weed control at 31 ppm [7] [%] | pest or weed control at 31 ppm [8] [%] | pest or weed control at 8 ppm (Uromyces appendiculatus; 8 ppm) [%]
6 | 4.01 | 4.01 |  | CCSC(=O)C1(NC(=O)c2sc(Cl)c(Cl)c2Cl)CC1 [I.011, S-ethyl 1-{[(3,4,5-trichloro-2-thienyl)carbonyl]amino}cyclopropanecarbothioate] | ≤ 30 | 90 to 100 | 90 to 100 | 90 to 100 | ≤ 30 | ≤ 30 | ≤ 30 | > 2 | > 2 |  |  |  |  |  |  | 
7 |  | 2.75 |  | CCOC(=O)C(CO)NC(=O)c1sc(Cl)c(Cl)c1Cl (stereo not drawn) [I.078] |  | 90 to 100 | 90 to 100 | 90 to 100 | ≤ 30 | ≤ 30 | ≤ 30 | > 2 | > 2 | 90 to 100 | 90 to 100 |  | 90 to 100 |  |  | 

From patent publication US20230055705A1, “SUBSTITUTED THIOPHENE CARBOXAMIDES AND DERIVATIVES THEREOF” (Bayer Aktiengesellschaft, priority 2019, published 2023)
